Literature values in US8226992B1, “Composition and method of preventing and treating redox diseases” (priority 2009, dated 2012).

Key:
[1] = at high levels
[2] = target: T1, Farnesoid X Receptors (FXR) (Mus musculus, UniProt Q60641); conditions: mouse model
T1 sequence (Q60641 1-488): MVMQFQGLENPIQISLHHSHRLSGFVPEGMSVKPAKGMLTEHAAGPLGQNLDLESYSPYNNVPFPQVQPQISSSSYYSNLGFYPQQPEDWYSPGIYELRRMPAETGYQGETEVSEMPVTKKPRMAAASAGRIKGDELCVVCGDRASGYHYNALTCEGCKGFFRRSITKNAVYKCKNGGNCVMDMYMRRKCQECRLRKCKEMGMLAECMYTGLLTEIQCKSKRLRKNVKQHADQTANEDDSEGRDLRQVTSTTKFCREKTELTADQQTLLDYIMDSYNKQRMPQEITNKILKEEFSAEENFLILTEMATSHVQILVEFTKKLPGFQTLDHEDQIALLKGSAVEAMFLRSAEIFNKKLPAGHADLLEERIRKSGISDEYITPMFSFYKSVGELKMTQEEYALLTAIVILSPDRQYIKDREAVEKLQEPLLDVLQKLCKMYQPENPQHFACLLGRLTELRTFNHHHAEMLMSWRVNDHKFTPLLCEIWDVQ

O=C(O)c1cccnc1 [Naicin]
Lp(a) levels reduced [1]: up to 15%

C[C@@]12CCc3occc3[C@H]1CC[C@@]13C[C@@H](CC[C@H]12)[C@@](O)(CO)C3 [Cafestol]
activity at Farnesoid X Receptors (FXR) [2]: agonist ligand
